For two molecules, Efficacy and Ki results are on record in ChEMBL document CHEMBL1136068 (Bioorg Med Chem Lett, 2003).

One test deals with Estrogen receptor (Homo sapiens, UniProt Q92731+P03372). In words: Antagonist efficacy with Estrogen receptor; Efficacy <20% and/or potency >[…] nM. The class given is functional.
The target of a further test is T1, Progesterone receptor (Homo sapiens, UniProt P06401).
T1 sequence (P06401 whole entry): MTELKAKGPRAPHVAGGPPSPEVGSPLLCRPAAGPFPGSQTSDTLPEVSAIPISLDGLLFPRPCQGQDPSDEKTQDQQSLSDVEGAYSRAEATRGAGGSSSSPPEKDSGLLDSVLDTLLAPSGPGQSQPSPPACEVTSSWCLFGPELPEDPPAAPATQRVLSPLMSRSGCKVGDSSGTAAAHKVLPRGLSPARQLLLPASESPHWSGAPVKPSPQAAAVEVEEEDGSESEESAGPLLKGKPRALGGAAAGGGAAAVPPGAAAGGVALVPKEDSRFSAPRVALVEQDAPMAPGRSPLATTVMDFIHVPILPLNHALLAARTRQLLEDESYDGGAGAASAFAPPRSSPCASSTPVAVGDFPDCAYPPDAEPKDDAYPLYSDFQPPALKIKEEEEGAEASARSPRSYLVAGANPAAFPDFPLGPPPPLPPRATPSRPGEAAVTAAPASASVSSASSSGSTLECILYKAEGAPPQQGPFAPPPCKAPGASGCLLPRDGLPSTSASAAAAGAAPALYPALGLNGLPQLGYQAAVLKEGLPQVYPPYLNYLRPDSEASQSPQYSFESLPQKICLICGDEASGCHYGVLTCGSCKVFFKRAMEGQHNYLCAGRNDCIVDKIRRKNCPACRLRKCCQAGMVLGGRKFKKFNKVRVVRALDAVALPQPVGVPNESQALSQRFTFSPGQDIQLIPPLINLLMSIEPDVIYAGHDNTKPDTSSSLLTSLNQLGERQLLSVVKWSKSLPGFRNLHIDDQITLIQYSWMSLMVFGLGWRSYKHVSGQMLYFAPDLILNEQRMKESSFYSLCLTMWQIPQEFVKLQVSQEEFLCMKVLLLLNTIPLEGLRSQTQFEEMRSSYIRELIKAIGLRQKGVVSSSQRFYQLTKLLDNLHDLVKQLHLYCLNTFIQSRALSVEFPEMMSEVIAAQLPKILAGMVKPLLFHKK
In words: Binding affinity for human progesterone receptor; […].

Active and inactive are the calls of the source. The calls are words filed in the database; no cut-off is given here.

Take `CC/C(C)=C1\Oc2ccc(F)cc2-c2ccc3c(c21)C(C)=CC(C)(C)N3`: the Efficacy entry at Estrogen receptor is “inactive”.
Usually Ki stands for the equilibrium dissociation constant of an inhibitor or competing ligand from its target. The low end stands for higher affinity, the high end for lower affinity. In turn, `CC(C)=C/C=C1\Oc2ccc(F)cc2-c2ccc3c(c21)C(C)=CC(C)(C)N3` showed an inhibition constant Ki on Progesterone receptor of 2.5 nM.
